Results taken from patent US4440757A, “Pharmaceutical composition comprising derivative of aminobenzoic acid for regulating prostaglandin” (priority 1978, dated 1984).

How the values were obtained:
male Sprague-Dowley rats = test: Foot-oedema induced by carrageenin and PGE1; assay type: in vivo; settings: 1000 mg/kg p.o.; with carrageenin + PGE1; 60 min after carrageenin
Method: The three groups of male Sprague-Dowley rats of total six groups, the respective present substances, Specimens Nos. 4, 7 and 8 were administered forcibly by oral route at a rate of 1000 mg/kg, the other three groups of the same kind of rats being administered nothing at this time.
After 60 min of the administration, 0.1 ml of an aqueous solution of carrageenin (1 mg) and PGE1 (0.1 μg) was injected onto the hind paw of the four groups of the rats including the three groups administered with the present substance. To one group of remaining two groups not administered with the present substance, 0.1 ml of an aqueous solution containing only carrageenin at 1% was injected, and to the other one group not administered with the present substance, an aqueous solution containing only PGE1 was injected.
The volume of the thus swollen foot of the groups of the thus treated rats was measured by the water-displacement method, and the results are shown in Table 17 by the increment of the volume of foot as compared to the volume of foot before the treatment as percentage.

male Donryu rats = test: Stress ulcer of the stomach and 6-keto PGF1α; assay type: in vivo; settings: 1 g/kg p.o.; for Ulcer-coefficient: 7 hours stress, control 100; for Amount of 6-keto PGF1α: plasma, control 3.3
Method: Three groups of male Donryu rats of body weight of 220 to 250 g after 23.5 hours of fasting were administered orally with the present substance (each of Specimen Nos. 4, 7 and 8) at a rate of one gram/kg dissolved in 8 ml (per 200 g body weight) of an aqueous physiological saline solution.
These three groups of rats and another group of rats equally fasted for 23.5 hours and then administered with only the aqueous physiological saline solution were put into the stresscage, and soaked in water at a temperature of 23° C. to the depth of their breast to load the stress on the rats.
After 7 hours of soaking, the rats were pulled out from water and were immediately sacrificed to collect the whole blood, and their stomachs were extirpated. The plasma fraction prepared from the blood was extracted with ether and the etherextract was separated by thin layer chromatography. The separated extract, after converted to the respective methyloximesilyl derivatives, was subjected to gaschromatography-mass spectorography to determine the content of 6-keto PGF1α.
An aqueous 1% solution of formaldehyde was injected into the extirpated stomach and after 10 min of injection, the stomach was cut to be opened at the greater curvature side to examine the mucous membrane of the gastric body. The longer span of each erosion in the mucous membrane of a rat, if any, was measured microscopically, and its sum expressed by millimeter was taken as an ulcer coefficient of the rat.

[1] = system: cervical aorta of an SD rat, PGI2; test: PGI2 production by cuttings of cervical aorta; assay type: cell-based; settings: 50 microliters of 2% solution into 500 microliters, 10 min
Method: After extirpating the cervical aorta of an SD rat under anesthsia, it was washed with Krebs-Linger bicarbonate buffer solution and cut into thin rings, and the cutings were kept in the above-mentioned buffer solution at a rate of 1 mg of wet cuttings per 0.5 ml to produce PGI2.
Into 500 microliters of the thus prepared mixture, 50 micro-liters of an aqueous physiological saline solution containing 2% by weight of the present substance (each of Specimens Nos. 4, 7 and 8) dissolved therein were added and, since the production of PGI2 generally attains to its maximum after 10 min of keeping, a supernatant liquid (2.5 μl) of the mixture was prepared after 10 min of the addition, and then the amount of PGI2 in the supernatant liquid was determined by using the action of suppression of aggregation of the platelets as an index and using ADP as the agglutinating agent, only an aqueous physiological solution being used as control.

cats = test: Pyrexia caused by pyrogen (Shigella dysentriae o-antigen) and PGE in c.s.f.; assay type: in vivo, cat
Method: The experiments were carried out on cats weighing 3 to 3.5 kg. In an aseptic operation under intraperitoneally administered sodium pentobarbitone at 36 mg/kg, a Collison cannula was implanted into the rostral part of the third ventricle of the cat.
A few days after implantation of the cannula, when the cat had recovered from the operation, specimens of cerebrospinal fluid were collected without anesthesia, whilst the cat was kept unrestrained in its cage, and its rectal temperature was recorded.
The specimens of cerebrospinal fluid (c.s.f.) were assayed immediately after collection, or after having been stored at -2° for 24 to 48 hours, and the determination of PGE in the specimens was carried out as in Example 9 using ^3 H-Prostaglandin E Radioimmunoassay Kit (manufactured by Clinical Assay Co., USA). Rectal temperature was recorded at room temperature (21° to 23° C.) with the thermistor probe inserted about 10 cm deep into the rectum.
As the pyrogen, somatic type o-antigen of Shigella dysentriae was used, and after dissolving 75 ng of the pyrogen into 0.15 ml of a pyrogen-free artificial c.s.f., the solution was injected into the third ventricle through the implanted cannula to induce fever.
After 2 hours of administration, the rectal temperature was measured to confirm the occurrence of pyrexia and then the present substance (each of Specimens Nos. 4, 7 and 8) was forcibly administered orally as an aqueous solution in distilled water at a rate of 100 mg/kg, control being administered only with distilled water in this time.
The rectal temperature of all animals was measured after one hour of the administration of the present substance.
The c.s.f. for the determination of its content of PGE was collected respectively before and after 2 hours of the injection of the pyrogen and after one hour of the administration of the present substance.

[2] = system: washed platelets, malondialdehyde; test: Level of malondialdehyde (MDA) of platelets; assay type: cell-based, human; settings: Ca ionophore A-23187, 5 min, 37° C.
Method: PRP collected from human blood was centrifugated and washed to be "washed platelets". After adding one of the present substances (Specimens Nos. 4, 7 and 8) to the washed platelets, Caionophore A-23187 was further added to them and the mixture was incubated for 5 minutes at 37° C. Then, thiobarbituric acid was added to the incubated mixture, as a colour developer, and the mixture was extracted with a solvent mixture of methanol and butanol. The absorption at 535 nm was colorimetrically read to determine the amount of malondialdehyde (MDA). […] From this fact also, the participation of the present substance in the metabolism of PGs is presumable.

[3] = system: Salmonella typhimurium TA 98; test: Mutagenicity, reversion assay, TA 98; assay type: cell-based; settings: 5,000 μg/plate; control 13
Method: (ii) The strains TA 98 and TA 100 (both are histidine requiring) of Salmonella typhimurium were used in the reversion assay.
Into 2 ml of a soft agar culture medium (the medium itself contains 6 g of sodium chloride and 6 g of agar in 1000 ml of distilled water) to which one tenth by volume of an aqueous solution of 0.5 mM of biotin and 0.5 mM of histidine had been added, 0.1 ml of the bacterial suspension and 0.1 ml of an aqueous solution of the present substance were admixed and the mixture was layered on the minimum agar culture medium. After 2 days of incubation at 37° C., the number of revertant colonies was counted. Furylfuramide (AF-2) was used as the positive control.

[4] = 1 hour after admin. Specimen, 100 mg/kg p.o., control 10
[5] = 1 hour after admin. Specimen, 100 mg/kg p.o., control 40.7
[6] = 2 hours after admin. pyrogen (before dosing)
[7] = before admin. pyrogen (before dosing)

| SMILES | Percentage increment of volume of foot (male Sprague-Dowley rats) | Ulcer-coefficient (male Donryu rats) | Amount of 6-keto PGF1α (male Donryu rats) | production of PGI2 by cuttings of cervical aorta (FIG. 15) [1] | Amount of PGE in c.s.f. (cats; [4]) | Rectal temperature (cats; [5]) | Amount of PGE in c.s.f. (cats; [6]) | Rectal temperature (cats; [6]) | Rectal temperature (cats; [7]) | production of malondialdehyde (MDA) (FIG. 8) [2] | Number of revertant colonies TA 98 [3] | Amount of PGE in c.s.f. (cats; [7]) |
| --- | --- | --- | --- | --- | --- | --- | --- | --- | --- | --- | --- | --- |
| C[C@@H]1OC(Nc2ccc(C(=O)O)cc2)[C@H](O)[C@H](O)[C@H]1O (stereo partly drawn) [Specimen No. 8, Sodium p-aminobenzoate-N--L-rhamnoside] | 29.7% | 55% | 3.6 ng/mL | raised the production of PGI2 | 8 ng/ml of c.s.f. | 40.0 °C | 13 ng/ml of c.s.f. | 41.5 °C | 39.1 °C | suppressed the production of MDA | 4 number per plate | – |
| O=C(O)c1ccc(NC2OC[C@@H](O)[C@H](O)[C@H]2O)cc1 (stereo partly drawn) [Specimen No. 7, Sodium p-aminobenzoate-N--D-xyloside] | 28.2% | 58% | 3.9 ng/mL | raised the production of PGI2 | 6 ng/ml of c.s.f. | 39.5 °C | 16 ng/ml of c.s.f. | 41.1 °C | 38.8 °C | suppressed the production of MDA | 4 number per plate | 2.4 ng/ml of c.s.f. |
| O=C(O)c1ccc(NC2O[C@H](CO)[C@@H](O)[C@H](O)[C@@H]2O)cc1 (stereo partly drawn) [Specimen No. 4, Sodium p-aminobenzoate-N--D-mannoside] | 32.5% | 62% | 3.8 ng/mL | raised the production of PGI2 | 5 ng/ml of c.s.f. | 39.9 °C | 11 ng/ml of c.s.f. | 41.3 °C | 39.0 °C | suppressed the production of MDA | 5 number per plate | 2.6 ng/ml of c.s.f. |
